Measured values: ChEMBL document CHEMBL5550220, “Discovering New Metallo-Deubiquitinase CSN5 Inhibitors by a Non-Catalytic Activity Assay Platform” (J Med Chem, 2024)
pIC50: −log10 of the molar value. The source made the active and inactive calls. No cut-off for these calls is given here.

What was measured:
[1] = biological target: T1, COP9 signalosome complex subunit 5 (Homo sapiens, UniProt Q92905); test: (§1) Inhibition of N-terminal His6-tagged CSN5 (2 to 257 residues) (unknown origin) transfected in Transetta cells preincubated for 20 mins followed by N-(2-(3-(3',6'-dihydroxy-3-oxo-3H-spiro[isobenzofuran-1,9'-xanthen]-5-yl)thioureido)ethyl)-3-(2-(5-methyl-[1,1'-biphenyl]-2-yl)-1H-pyrrolo[2,3-b]pyridin-3-yl)propanamide probe addition and measured after 1 hr by fluorescence based microplate reader assay; type: cell-based
Target sequence in this assay (Q92905 whole entry, the tested form may be a part, one chain of several): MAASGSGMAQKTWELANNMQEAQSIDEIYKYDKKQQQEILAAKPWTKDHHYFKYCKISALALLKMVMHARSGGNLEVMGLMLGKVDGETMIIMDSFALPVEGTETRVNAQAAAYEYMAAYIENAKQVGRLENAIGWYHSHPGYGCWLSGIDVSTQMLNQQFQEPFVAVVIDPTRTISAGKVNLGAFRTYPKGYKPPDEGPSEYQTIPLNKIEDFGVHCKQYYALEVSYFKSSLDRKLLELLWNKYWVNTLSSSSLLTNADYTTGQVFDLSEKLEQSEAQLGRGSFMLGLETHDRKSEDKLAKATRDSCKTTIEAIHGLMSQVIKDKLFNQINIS

[2] = biological target: T1, COP9 signalosome complex subunit 5; test: as §1, with “polarization” for “based microplate reader”
Target sequence in this assay (Q92905 whole entry, the tested form may be a part, one chain of several): as above

HCT-116 [3] = test: Antiproliferative activity against human HCT-116 cells assessed as inhibition of cell proliferation measured after 3 days by MTT assay; type: functional, cell-based; conditions: HCT-116, 72 h
A-375 = test: Antiproliferative activity against human A-375 cells assessed as inhibition of cell proliferation measured after 3 days by MTT assay; type: functional, cell-based; conditions: A-375, 72 h
HepG2 [4] = test: Antiproliferative activity against human HepG2 cells assessed as inhibition of cell proliferation measured after 3 days by MTT assay; type: functional, cell-based; conditions: HepG2, 72 h
MDA-MB-231 [5] = test: Antiproliferative activity against human MDA-MB-231 cells assessed as inhibition of cell proliferation measured after 3 days by MTT assay; type: functional, cell-based; conditions: MDA-MB-231, 72 h
MDA-MB-231 [6] = test: Downregulation of PD-L1 protein expression in human MDA-MB-231 cells at 3 to 30 uM by Western blot analysis; type: functional, cell-based; conditions: dose 3-30 µM
HCT-116 [7] = test: Downregulation of PD-L1 protein expression in human HCT-116 cells at 30 uM by Western blot analysis; type: functional, cell-based
[8] = biological target: T1, COP9 signalosome complex subunit 5; test: Binding affinity to N-terminal His6-tagged CSN5 (2 to 257 residues) (unknown origin) transfected in Transetta cells assessed as decrease in tryptophan fluorescence intensity incubated for 10 mins by fluorescence quenching based microplate reader analysis; type: cell-based; conditions: dose 0-100 µM
Target sequence in this assay (Q92905 2-334 limits assumed, one chain of several): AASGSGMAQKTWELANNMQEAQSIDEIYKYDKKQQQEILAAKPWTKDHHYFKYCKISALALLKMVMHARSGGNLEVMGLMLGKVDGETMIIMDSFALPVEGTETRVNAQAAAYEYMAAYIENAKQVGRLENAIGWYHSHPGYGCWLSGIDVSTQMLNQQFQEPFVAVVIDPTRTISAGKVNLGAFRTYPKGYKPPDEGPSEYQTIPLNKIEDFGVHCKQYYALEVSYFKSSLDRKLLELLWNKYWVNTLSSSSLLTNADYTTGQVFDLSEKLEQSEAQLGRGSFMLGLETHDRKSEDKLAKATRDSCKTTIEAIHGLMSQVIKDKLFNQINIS

[9] = biological target: T1, COP9 signalosome complex subunit 5; test: Inhibition of CSN5 in human HCT-116 cells assessed as increase in NEDD8-Cul1 level by Western blot analysis; type: cell-based; conditions: dose 3-30 µM
Target sequence in this assay (Q92905 2-334 limits assumed, one chain of several): as above

[10] = biological target: T1, COP9 signalosome complex subunit 5; test: Inhibition of N-terminal His6-tagged CSN5 (2 to 257 residues) (unknown origin) transfected in Transetta cells preincubated with N-(2-(3-(3',6'-dihydroxy-3-oxo-3H-spiro[isobenzofuran-1,9'-xanthen]-5-yl)thioureido)ethyl)-3-(2-(5-methyl-[1,1'-biphenyl]-2-yl)-1H-pyrrolo[2,3-b]pyridin-3-yl)propanamide probe followed by compound addition by fluorescence based microplate reader assay; type: cell-based
Target sequence in this assay (Q92905 2-334 limits assumed, one chain of several): as above

[11] = biological target: T1, COP9 signalosome complex subunit 5; test: Inhibition of CSN5 in human MDA-MB-231 cells assessed as increase in NEDD8-Cul1 level by Western blot analysis; type: cell-based; conditions: dose 3-30 µM
Target sequence in this assay (Q92905 2-334 limits assumed, one chain of several): as above

[12] = biological target: T1, COP9 signalosome complex subunit 5; conditions: dose 50.0 µM
Target sequence in this assay (Q92905 2-334 limits assumed, one chain of several): as above
Description: Thermal stabilization of N-terminal His6-tagged CSN5 (2 to 257 residues) (unknown origin) transfected in Transetta cells assessed as change in melting temperature at 50 uM by SYPRO orange dye based thermal shift assay

[13] = biological target: T1, COP9 signalosome complex subunit 5; test: Inhibition of CSN5 in human HepG2 cells assessed as increase in neddylation of cullin1 by Western blot analysis; type: cell-based; conditions: dose 0.3-3 µM
Target sequence in this assay (Q92905 2-334 limits assumed, one chain of several): as above

[14] = biological target: T1, COP9 signalosome complex subunit 5; test: Inhibition of CSN5 in human HCT-116 cells assessed as increase in neddylation of cullin1 at 3 uM by Western blot analysis; type: cell-based
[15] = biological target: T1, COP9 signalosome complex subunit 5; test: Binding affinity to N-terminal His6-tagged Zn-II deficient CSN5 (2 to 257 residues) (unknown origin) transfected in Transetta cells assessed as tryptophan fluorescence change at 0 to 100 uM incubated for 10 mins by fluorescence quenching based microplate reader analysis; type: cell-based; conditions: dose 0-100 µM
HepG2 [16] = test: Effect on CSN5 protein level in human HepG2 cells at 3 uM by Western blot analysis; type: functional, cell-based
HCT-116 [17] = test: Effect on CSN5 protein level in human HCT-116 cells at 3 uM by Western blot analysis; type: functional, cell-based
HepG2 [18] = test: Effect on PD-L1 level in human HepG2 cells at 0.3 to 3 uM by Western blot analysis; type: functional, cell-based; conditions: dose 0.3-3 µM
[19] = biological target: T1, COP9 signalosome complex subunit 5; test: Inhibition of CSN5 in human HepG2 cells assessed as increase in neddylation of cullin1 at 3 uM by Western blot analysis; type: cell-based
HCT-116 [20] = test: Upregulation of PD-L1 level in human HCT-116 cells at 3 uM by Western blot analysis; type: functional, cell-based
HCT-116 [21] = test: Upregulation of PD-L1 protein expression in human HCT-116 cells at 30 uM by Western blot analysis; type: functional, cell-based
HCT-116 [22] = test: Upregulation of PD-L1 level in human HCT-116 cells at 30 uM by Western blot analysis; type: functional, cell-based

## CC(C)c1ccc(Cc2sc(N)nc2C(=O)O)cc1
[1]
  pIC50: 4.10
[2]
  pIC50: 3.96

## CC(C)=CC[C@@H](OC(=O)C(C)C)C1=CC(=O)c2c(O)ccc(O)c2C1=O [ISOBUTYLSHIKONIN]
HCT-116 [3]
  pIC50: 5.76
A-375
  pIC50: 5.77
[1]
  pIC50: 5.93
HepG2 [4]
  pIC50: 5.06
[2]
  pIC50: 6.22

## Nc1nc(C(=O)O)c(CCc2ccc(Br)cc2)s1
HCT-116 [3]
  pIC50: 4.26
MDA-MB-231 [5]
  pIC50: 4.47
[1]
  pIC50: 4.19
HepG2 [4]
  pIC50: < 4.00
[2]
  pIC50: 4.18

## O=C1C=CC(=O)c2c(O)ccc(O)c21 [NAPHTHAZALIN]
HCT-116 [3]
  pIC50: 5.98
A-375
  pIC50: 5.05
[1]
  pIC50: 6.04
HepG2 [4]
  pIC50: 5.30
[2]
  pIC50: 6.77

## CC(=O)O[C@H](CC=C(C)C)C1=CC(=O)c2c(O)ccc(O)c2C1=O [ACETYLSHIKONIN]
HCT-116 [3]
  pIC50: 5.45
A-375
  pIC50: 5.72
[1]
  pIC50: 5.97
HepG2 [4]
  pIC50: 5.19
[2]
  pIC50: 6.37

## COc1ccc2cc([C@@H](C)c3sc(N)nc3C(=O)O)ccc2c1
HCT-116 [3]
  pIC50: 4.39
MDA-MB-231 [6]
  Activity: Active
HCT-116 [7]
  Activity: Active
MDA-MB-231 [5]
  pIC50: 4.17
[8]
  Activity: Dose-Dependent Effect
[1]
  pIC50: 4.77
HepG2 [4]
  pIC50: 4.28
[9]
  inhibition: Dose-Dependent Effect
[10]
  inhibition: Active
[2]
  pIC50: 4.57
[11]
  inhibition: Dose-Dependent Effect

## CC(C)=CC[C@H](O)C1=CC(=O)c2c(O)ccc(O)c2C1=O [ALKANNIN]
HCT-116 [3]
  pIC50: 6.08
A-375
  pIC50: 5.85
[1]
  pIC50: 6.10
HepG2 [4]
  pIC50: 5.31
[12]
  ΔTm: 1 °C
[2]
  pIC50: 6.57

## CCCCc1sc(N)nc1C(=O)O
[1]
  pIC50: < 3.52
[2]
  pIC50: < 3.52

## CC(C)=CC[C@@H](O)C1=CC(=O)c2c(O)ccc(O)c2C1=O [SHIKONIN]
HCT-116 [3]
  pIC50: 6.28
[13]
  inhibition: Dose-Dependent Effect
[14]
  inhibition: Active
[15]
  Activity: inactive
A-375
  pIC50: 6.15
HepG2 [16]
  Activity: inactive
HCT-116 [17]
  Activity: inactive
[8]
  Activity: Dose-Dependent Effect
HepG2 [18]
  Activity: inactive
[1]
  pIC50: 6.39
HepG2 [4]
  pIC50: 5.53
[19]
  inhibition: Active
HCT-116 [20]
  Activity: Active
[12]
  ΔTm: 1 °C
[10]
  inhibition: Active
[2]
  pIC50: 6.72

## Nc1nc(C(=O)O)c(CCc2ccc(Cl)cc2Cl)s1
HCT-116 [3]
  pIC50: 4.25
MDA-MB-231 [5]
  pIC50: < 4.00
[1]
  pIC50: 4.38
HepG2 [4]
  pIC50: < 4.00
[2]
  pIC50: 4.38

## Cc1ccc(CCc2sc(N)nc2C(=O)O)o1
[1]
  pIC50: 3.79
[2]
  pIC50: 3.73

## Cc1ccc(-c2[nH]c3ncccc3c2CCC(=O)N2CCOC[C@H]2c2nc3ccccc3[nH]2)c(-c2ccccc2)c1
HCT-116 [21]
  Activity: Active
HCT-116 [22]
  Activity: Active

## CC(C)(C)c1ccc(Cc2sc(N)nc2C(=O)O)cc1
[1]
  pIC50: 4.08
[2]
  pIC50: 4.04

## CC(C)c1ccc(CC(C)c2sc(N)nc2C(=O)O)cc1 (stereo unspecified)
HCT-116 [3]
  pIC50: 4.79
MDA-MB-231 [5]
  pIC50: 4.85
[8]
  Activity: Dose-Dependent Effect
[1]
  pIC50: 4.83
HepG2 [4]
  pIC50: 4.43
[2]
  pIC50: 4.87

## Nc1nc(C(=O)O)c(CCc2cccc3ccccc23)s1
HCT-116 [3]
  pIC50: 4.75
MDA-MB-231 [5]
  pIC50: 4.65
[1]
  pIC50: 4.55
HepG2 [4]
  pIC50: 4.51
[2]
  pIC50: 4.52

## CC(C)Cc1sc(N)nc1C(=O)O
[1]
  pIC50: < 3.52
[2]
  pIC50: < 3.52

## CC(C)=CCCC1=CC(=O)c2c(O)ccc(O)c2C1=O [DEOXYSHIKONIN]
HCT-116 [3]
  pIC50: 4.81
[14]
  inhibition: Active
A-375
  pIC50: 5.17
HepG2 [16]
  Activity: inactive
HCT-116 [17]
  Activity: inactive
[8]
  Activity: Dose-Dependent Effect
[1]
  pIC50: 5.32
HepG2 [4]
  pIC50: 4.98
[19]
  inhibition: Active
HCT-116 [20]
  Activity: inactive
[2]
  pIC50: 5.60

## CC(Cc1ccc(C(C)(C)C)cc1)c1sc(N)nc1C(=O)O (stereo unspecified)
HCT-116 [3]
  pIC50: 4.62
MDA-MB-231 [5]
  pIC50: 4.64
[8]
  Activity: Dose-Dependent Effect
[1]
  pIC50: 4.72
HepG2 [4]
  pIC50: 4.41
[9]
  inhibition: Dose-Dependent Effect
[10]
  inhibition: Active
[2]
  pIC50: 4.90
[11]
  inhibition: Dose-Dependent Effect

## CC(C)(C)c1ccc(CCc2sc(N)nc2C(=O)O)cc1
HCT-116 [3]
  pIC50: 4.28
MDA-MB-231 [5]
  pIC50: 4.28
[1]
  pIC50: 4.53
HepG2 [4]
  pIC50: < 4.00
[2]
  pIC50: 4.72
